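Results reflect a 48-hour exposure of cells in 96-well plates to compound at five concentrations. Abbreviation: GI50, concentration required for 50% inhibition of growth.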 The source made the active and inactive calls. Cut-off read from the data, not from the text of the source: active = GI50 up to about 1.1 µM and inactive = higher.
Assays:
Assay in all cases: DTP human tumour cell line panel, 48 h
786-0 = test system: 786-0
UO-31 = test system: UO-31
T47D = test system: T47D
Hs-578T = test system: Hs-578T
SK-MEL-5 = test system: SK-MEL-5
MCF7 = test system: MCF7
NCI-H522 = test system: NCI-H522
OVCAR-3 = test system: OVCAR-3
MOLT-4 = test system: MOLT-4
KM12 = test system: KM12
TK-10 = test system: TK-10
SNB-75 = test system: SNB-75
OVCAR-4 = test system: OVCAR-4
SW-620 = test system: SW-620
NCI-H460 = test system: NCI-H460
SN12C = test system: SN12C
RPMI-8226 = test system: RPMI-8226
HCC 2998 = test system: HCC 2998
NCI-H23 = test system: NCI-H23
MDA-MB-435 = test system: MDA-MB-435

Measured: GI50

C/C=C(/C)C(=O)O[C@H]1[C@H]2[C@@H]([C@@H](OC(C)=O)[C@H](C)C(=O)[C@@]34C[C@@H](C)C(=O)[C@]3(/C=C(\C)[C@H]1OC(C)=O)O4)C2(C)C
inactive: 786-0 2.67 µM | UO-31 3.85 µM | T47D 2.31 µM | Hs-578T 5.64 µM | SK-MEL-5 3.64 µM | MCF7 3.26 µM | NCI-H522 3.28 µM | OVCAR-3 3.95 µM | MOLT-4 1.83 µM | KM12 5.58 µM | TK-10 3.45 µM | SNB-75 4.98 µM | OVCAR-4 4.9 µM | SW-620 3.39 µM | NCI-H460 1.31 µM | SN12C 2.42 µM | RPMI-8226 3.35 µM | HCC 2998 5.16 µM | NCI-H23 6.46 µM | MDA-MB-435 2.99 µM

O=C1NN=C2C=C(c3ccc(Cl)cc3)CC(c3cccc(Br)c3)C12 (stereo not given)
inactive: 786-0 > 100 µM | UO-31 42.8 µM | T47D 22.1 µM | Hs-578T 19.1 µM | SK-MEL-5 > 100 µM | MCF7 44 µM | NCI-H522 38.4 µM | OVCAR-3 42.1 µM | MOLT-4 43.9 µM | KM12 > 100 µM | TK-10 54.5 µM | SNB-75 80.9 µM | OVCAR-4 > 100 µM | SW-620 81.8 µM | NCI-H460 40 µM | SN12C > 100 µM | RPMI-8226 26.1 µM | HCC 2998 38.7 µM | NCI-H23 87.3 µM | MDA-MB-435 77.1 µM

CC[C@@H]1CC[C@@H]2[C@H](CC[C@]3(C)[C@@H](O)CC[C@@H]23)[C@H]1CO
inactive: 786-0 > 100 µM | UO-31 > 100 µM | T47D 70.5 µM | Hs-578T > 100 µM | SK-MEL-5 31.3 µM | MCF7 > 100 µM | NCI-H522 44.6 µM | OVCAR-3 > 100 µM | MOLT-4 50 µM | KM12 > 100 µM | TK-10 > 100 µM | SNB-75 75.9 µM | OVCAR-4 71 µM | SW-620 > 100 µM | NCI-H460 > 100 µM | SN12C > 100 µM | RPMI-8226 67 µM | HCC 2998 > 100 µM | NCI-H23 > 100 µM | MDA-MB-435 66.1 µM

Cc1cc2c(cc1C)NC1=C(O)C(c3c[nH]c4ccc(COc5ccccc5)cc34)OC1=N2 (stereo not given)
inactive: 786-0 30.5 µM | UO-31 79.8 µM | T47D > 100 µM | Hs-578T 36 µM | SK-MEL-5 > 100 µM | MCF7 72.1 µM | NCI-H522 > 100 µM | OVCAR-3 > 100 µM | MOLT-4 46.9 µM | KM12 > 100 µM | TK-10 53.5 µM | SNB-75 14.9 µM | OVCAR-4 > 100 µM | SW-620 > 100 µM | NCI-H460 > 100 µM | SN12C > 100 µM | RPMI-8226 > 100 µM | HCC 2998 17.1 µM | NCI-H23 > 100 µM | MDA-MB-435 > 100 µM

Source: ChEMBL document CHEMBL1201862, “PubChem BioAssay data set” (2004)
